Source: publication PMC9658513, “Discovery of Compounds That Selectively Repress the Amyloidogenic Processing of the Amyloid Precursor Protein: Design, Synthesis and Pharmacological Evaluation of Diphenylpyrazoles” (International Journal of Molecular Sciences, 2022)
Like-named read-outs stand apart in the source and are kept apart here.

Assays:
LC3 = assay: Autophagic flux: LC3-I lipidation into LC3-II by Western blot; type: cell-based; settings: Homo sapiens, 24 h, 0.1 µM (100 nM), SY5Y-APP^wt cells, vs control
From the text: (§1) Previous work dedicated to compounds of family C [22] has underlined the effect of our compounds on autophagic flux and the lysosomal degradation pathways. More precisely, the role of the amino side chains and their number was highlighted. Therefore, we assessed whether the activity of compounds involved the modulation of lysosomal activities toward the accumulation of APP-CTFs and AICD. Thus, we studied the effect of a selection of compounds on the autophagic flux, more particularly, we evaluated the effect of compounds 24, 33, 34, 57, 65, 67, 70, and 71 on two markers associated with autophagy: p62 and LC3-I lipidation into LC3-II. To the previous selection of efficient compounds decreasing Aβ1–x production and increasing CTFα and AICD, we added compound 65 with no cytotoxicity at 100 µM. As a comparison, we also selected compound 57 with a hydroxymethyl substituent as a control. In addition to CQ, bafilomycin A, a well-known inhibitor of autophagic flux, was used as a control. Treatment with compounds 67 and 71 induced an increase in p62 expression by 2.5 and 4-fold, respectively, compared to the control condition (Figure 3). […] An increase in the two markers was also observed with compound 57, but to a smaller extent (1.7-fold for p62 and 2-fold for LC3-I/LC3-II).
(§2) The human neuroblastoma cell line SY5Y-APP^695WT was maintained in Dulbecco’s modified Eagle medium (DMEM, high glucose, pyruvate—GIBCO, Life Technologies, Carlsbad, CA, USA) supplemented with 10% fetal bovine serum, 2 mM L-glutamine, 1 mM non-essential amino acids and penicillin/streptomycin (GIBCO, Life Technologies, Carlsbad, CA, USA) at 37 °C in a 5% CO2 humidified incubator [36]. For compound treatment, a 10 mM stock solution was diluted in freshly supplemented DMEM medium to obtain the precise final concentration of the drug. Cells were plated at a density of 5 × 10^5 cells per well into 12-well plates and cultured with 1 mL supplemented DMEM cell medium for 24 h before compound exposure. The following day, the cell medium was replaced with fresh medium containing the compounds diluted at the indicated concentrations. Cells were treated for 24 h. At the end of the treatments, the cell medium was collected and kept at −80 °C until use, cells were rinsed once with PBS and extracted in 100 µL of Laemmli buffer (10 mM Tris, 20% glycerol, and 2% sodium dodecyl sulfate) using a cell-scraper. The cell lysate was further sonicated (30 pulses of 0.5 s, 60 Hz) for 5 min. Total protein concentration was determined using the Pierce BCA Protein Assay Kit (Thermo Scientific, Waltham, MA, USA) according to the manufacturer’s instructions. Samples were stored at −80 °C until analysis.
(§3) Cell protein lysates were prepared for Western blot analysis by diluting the sample with 1 volume of NuPAGE® lithium dodecyl sulfate (LDS) 2X sample buffer supplemented with 20% NuPAGE® sample reducing agents (Invitrogen). Samples were heated for 10 min at 100 °C. Ten µg of total proteins per well were loaded onto precast 4–12% Criterion XT Bis-Tris polyacrylamide gels (Bio-Rad) and electrophoresis was achieved after applying a tension of 150 V for 90 min using a Criterion electrophoresis cell with the NuPAGE® MOPS SDS running buffer (1X). Proteins were transferred to a nitrocellulose membrane of […] pore size (G&E Healthcare, Madison, WI, USA) using the Criterion blotting system and applying a tension of 100 V for 45 min. To resolve proteins of low molecular weights such as carboxy-terminal fragments of APP, 12% Criterion XT Bis-Tris polyacrylamide gels (Bio-Rad, Hercules, CA, USA) were used, and electrophoresis was performed for 70 min at 150 V in a NuPAGE® MES SDS running buffer (1X). Proteins were transferred to a nitrocellulose membrane of 0.2 µm pore size (G&E Healthcare, Madison, WI, USA) at 100 V for 40 min. Molecular weight calibration was achieved using molecular weight markers (Novex and Magic Marks, Life Technologies, Carlsbad, CA, USA). […]

p62 = assay: Autophagic flux: p62 expression by Western blot; type: cell-based, human; settings: Homo sapiens, 24 h, 0.1 µM (100 nM), SY5Y-APP^wt cells, vs control
From the text: as §1, §2, §3

p62/LC3 = assay: Ratio between p62 and LC3 expression levels; type: cell-based, human; settings: 24 h, SY5Y-APP^wt cells
From the text: Compounds from both series were selected to first determine the potential relationship between the repression of Aβ1–x production and the increased expression of LC3 and p62. […] We then also considered the ratio between the p62 and LC3 expression levels.
Figure 3 Effect of compounds 24, 33, 34, 57, 65, 67, 70, and 71 on the autophagic flux in SY5Y-APP^wt cells. […] Cell lysates were immunolabeled with the following antibodies: p62 (a), LC3 (b), and β-actin. Statistical significance was set at * p < 0.05, ** p < […], *[…], **** p < 0.0001, and ns as not significant.

Aβ1–40 peptide secretion = assay: Aβ1–40 secretion in cell medium by ELISA; type: cell-based, human; settings: SY5Y-APP^WT cells, 24 h treatment, mean ± SD of at least three experiments in triplicate, read-out: Aβ1–40 IC50
Method: (§4) The final and selected intermediate compounds were evaluated for their ability to modulate APP processing in the SH-SY5Y human neuroblastoma cell line stably expressing the neuronal isoform of human wild-type APP^695 (SY5Y-APP^WT), a well-established model for the study of APP metabolism. APP carboxy-terminal fragments (αCTFs and AICD) levels were assessed by Western blotting (WB). The effect of the reference and test compounds on αCTFs and AICD is expressed as the intensity of corresponding WB bands. The concentration of compounds able to increase 20-times αCTFs and AICD (C20) when compared to the control condition was calculated. Selected compounds were also evaluated for their ability to modulate the secretion of soluble APP fragments (sAPPα and sAPPβ). Aβ1–x levels (Aβ1–40 and Aβ1–42) after treatment with the reference and tested compounds were measured in the cell media by ELISA (Table 1). […] Selected hit compounds were then further evaluated for their ability to decrease the level of N-truncated Aβ peptides (Aβx–38, Aβx–40, and Aβx–42).
as §2
(§5) Conditioned media of SY5Y-APP^695WT collected at the end of treatments were centrifuged at 1000× g for 5 min to eliminate cell debris.
(§6) Aβ1–40/Aβ1–42 peptides, Aβx–38/Aβx–40/Aβx–42, and sAPPα/sAPPβ concentrations in pg/mL were determined, respectively, using amyloid-beta 40 and 42 Human ELISA Kits (Invitrogen), the V-PLEX Plus Aβ Peptide Panel 1 (4G8) Kit (Meso Scale Diagnostics, MSD R©, Rockville, MD, USA), and the sAPPα/sAPPβ Multiplex Kit (Meso Scale Diagnostics, MSD R©, Rockville, MD, USA) according to the manufacturer’s instructions.

Aβ1–42 peptide secretion = assay: Aβ1–42 secretion in cell medium by ELISA; type: cell-based, human; settings: SY5Y-APP^WT cells, 24 h treatment, mean ± SD of at least three experiments in triplicate
Method: as §4, §2, §5, §6

[1] = test system: αCTF (APP carboxy-terminal fragment); assay: αCTF level by Western blotting in SY5Y-APP^WT cells; type: cell-based, human; settings: concentration increasing αCTF 20-fold vs untreated control, SY5Y-APP^WT cells, read-out: αCTF (C20)
Method: as §4, §2
as §3, with “USA). Protein transfer and quality were determined by a reversible Ponceau Red coloration (0.2% xylidine Ponceau Red and 3% trichloroacetic acid).” for “USA).”

[2] = test system: AICD (APP intracellular domain); assay: AICD level by Western blotting in SY5Y-APP^WT cells; type: cell-based, human; settings: concentration increasing AICD 20-fold vs untreated control, read-out: AICD (C20)
Method: as §4, §2
as §3, with “USA). Protein transfer and quality were determined by a reversible Ponceau Red coloration (0.2% xylidine Ponceau Red and 3% trichloroacetic acid).” for “USA).”

in vitro = type: cell-based, human; settings: human
Method: (§7) Cytotoxicity was measured using 3-(4,5-dimethylthiazol-2-yl)-5-(3-carboxymethoxyphenyl)-2-(4-sulfophenyl)-2H-tetrazolium (MTS) tests. SY5Y-APP^695WT cells were plated in a 96-well plate at 3 × 10^4 cells per well and allowed to attach for 24 h. Cells were then incubated for 72 h with 100 µL of DMEM with 10% SVF containing (or not) the defined concentration of drugs. Cytotoxicity was determined by using the colorimetric MTS assay (Cell Titer 96® Aqueous One Solution Cell Proliferation Assay-MTS Promega, Madison, WI, USA) according to the manufacturer’s instructions. Absorbance was read at 490 nm.

SY5Y-APP^695WT cells = assay: in vitro; type: cell-based, human
Method: as §7

| Compound | IC50 (Aβ1–40 peptide secretion; Homo sapiens) [µM] | IC50 (Aβ1–42 peptide secretion; Homo sapiens) [µM] | IC50 (Aβ1–40 peptide secretion) [µM] | IC50 (Aβ1–42 peptide secretion) [µM] | EC (20-fold increase) ([1]; Homo sapiens) [µM] | EC (20-fold increase) ([2]; Homo sapiens) [µM] | CC50 at 72 h (in vitro) [µM] | EC (20-fold increase) [1] [µM] | EC (20-fold increase) [2] [µM] | CC50 (SY5Y-APP^695WT cells) [µM] | further results |
| --- | --- | --- | --- | --- | --- | --- | --- | --- | --- | --- | --- |
| CO/C1=C\C(C)=C\[C@@H](C)[C@@H](O)[C@@H](C)C/C(C)=C/C=C/[C@H](OC)[C@@H]([C@@H](C)[C@@H](O)[C@H](C)[C@@]2(O)C[C@@H](O)[C@H](C)[C@@H](C(C)C)O2)OC1=O [Baf A1, bafilomycin A1, reference compound] | – | – | – | – | – | – | – | – | – | – | fold induction at 0.1 µM (LC3): 4.68; fold induction at 0.1 µM (p62): 1.48; p62/LC3 (p62/LC3; 0.1 µM (100 nM)): 0.31 |
| Cc1cn(-c2cccc(CN(C)CCCN(C)C)c2)nc1-c1cccc(CN(C)CCCN(C)C)c1 [Compound 72, N′-[[3-[1-[3-[[3-(Dimethylamino)propyl-methyl-amino]methyl]phenyl]-4-methyl-pyrazol-3-yl]phenyl]methyl]-N,N,N′-trimethyl-propane-1,3-diamine] | 2.6 ± 0.2 | 3.3 ± 0.1 | – | – | 0.6 | 0.8 | 26 | – | – | – | – |
| N′-[[3-[4-[3-(Dimethylamino)propyl]-3-[4-[3-(dimethylamino)propyl]phenyl] Pyrazol-1-yl]phenyl]methyl]-N,N,N′-trimethyl-propane-1,3-diamine [Compound 35] | – | – | 12.4 ± 0.6 | 13.2 ± 0.2 | – | – | – | 5.1 | 5.4 | > 100 | p62/LC3 (p62/LC3; compound at 3 µM): ~1 |

More lines, main results first:

| IC50 (Aβ1–40 peptide secretion; Homo sapiens) [µM] | IC50 (Aβ1–42 peptide secretion; Homo sapiens) [µM] | IC50 (Aβ1–40 peptide secretion) [µM] | IC50 (Aβ1–42 peptide secretion) [µM] | Compound | EC (20-fold increase) ([1]; Homo sapiens) [µM] | EC (20-fold increase) ([2]; Homo sapiens) [µM] | CC50 at 72 h (in vitro) [µM] | EC (20-fold increase) [1] [µM] | EC (20-fold increase) [2] [µM] | CC50 (SY5Y-APP^695WT cells) [µM] | further results |
| --- | --- | --- | --- | --- | --- | --- | --- | --- | --- | --- | --- |
| 2.2 ± 0.3 | 2.5 ± 1 | – | – | Cc1cn(-c2cccc(CN(C)CCCN(C)C)c2)nc1-c1cccc(CN(C)C)c1 [Compound 66, N′-[[3-[3-[3-(Dimethylaminomethyl)phenyl]-4-methyl-pyrazol-1-yl]phenyl]methyl]-N,N,N’-trimethyl-propane-1,3-diamine] | 2.2 | 2.4 | 47 | – | – | – | – |
| 1.2 ± 0.1 | 1.6 ± 0.1 | – | – | Cc1cn(-c2cccc(CN3CCN(C)CC3)c2)nc1-c1ccc(CN(C)CCCN(C)C)cc1 [Compound 68, [3-(Dimethylamino)propyl](methyl){[4-(4-methyl-1-{3-[(4-methylpiperazin-1-yl)methyl]phenyl}-1H-pyrazol-3-yl)phenyl]methyl}amine] | 1 | 1 | 6 | – | – | – | – |
| – | – | 4.2 ± 0.1 | 6.1 ± 0.3 | N′-[[4-[4-(Dimethylaminomethyl)-3-[4-[3-(dimethylamino)propyl]phenyl] Pyrazol-1-yl]phenyl]methyl]-N,N,N′-trimethyl-propane-1,3-diamine [Compound 32] | – | – | – | 1.1 | 1.8 | > 100 | – |
